Source: patent US20250180567A1, “METHOD FOR MEASURING GL[…] ANTIGEN PROTEIN OF HBV” (RCMG Inc., priority 2021, published 2025)

How the values were obtained:
[1] = system: glycosylated recombinant HBs antigen protein; test: sandwich ELISA of immobilized HBs antibody (HBsAgGi) and biotinylated lectins; assay type: binding, hepatitis B virus; conditions: FIG. 1; for detection of N-glycosylated S-HBs as a specific positive signal (ELISA absorbance): lectin-biotin 1 μg/mL, absorbance at 450 nm
Experimental: A purified antibody against HBs antigen protein (HBsAgGi) was immobilized on a plate, and a sandwich ELISA system was constructed to examine the optimal lectin to be used for detecting the capturedHBs antigen.
1) HBsAgGi (5 μg/mL) diluted with BSA (5 μg/mL)/PBS was added to a Nunc Immobilizer Amino Plate at a volume of 0.1 mL per well, and the plate was shaken at room temperature for 4 hours to immobilize the antibody. After washing twice with PBS-T, 0.3 mL of TBS was added per well and the plate was allowed to stand overnight at 4° C. for blocking. 2) After washing with PBS-T, glycosylated recombinant HBs antigen protein was diluted to 400 ng/ml with Sample dilution buffer (3% BSA/TBS-T), 0.1 mL thereof was added per well, and the plate was shaken at room temperature for 2.5 hours to be captured the antigen on the antibody solid-phased plate. In order to confirm the effect of the serum, recombinant HBs antigen to which 5% Normal human serum (NHS) was added was also treated in the same manner. 3) After washing the wells four times with PBS-T, the wells were reacted with the following lectins diluted with PBS-T at room temperature for 2 hours by shaking.
Jacalin-biotin (1 μg/mL), MAL II-biotin (1 μg/mL), RCA120-biotin (1 μg/mL), SNA-biotin (1 μg/mL), SSA-biotin (1 μg/mL), WGA-biotin (1 μg/mL) 4) After washing four times with PBS-T, the wells were reacted with Peroxidase-conjugated Streptavidin (1/20,000 dilution) or SSA-HRP (2 μg/mL) diluted with PBS-T at room temperature for 1 hour by shaking.
5) After washing the wells four times with PBS-T, 0.1 mL of 1Step Ultra TMB-ELISA was added per well and allowed to react for 5 min, then 50 μL of 1 mol/L sulfuric acid was added to stop the reaction. After the reaction was stopped, the absorbance at 450 nm was immediately measured by a plate reader.

glycosylated S-HBs = test: lectin-antibody combination ELISA using sera from chronic hepatitis B patients; assay type: binding, hepatitis B virus; conditions: actual sera from chronic hepatitis B patients; lectin combined with S-HBs antibody
Experimental: This finding means that the glycosylated chains attached to S-HBs bind to WGA, which is completely unexpected.
Sera from untreated (no treatment history with nucleic acid analogs) chronic hepatitis B patients (HBs antigen positivity persisting for 6 months or more) (n=4) were used before (0) weeks) and 48 weeks after nucleic acid analog treatment. 1) HBsAg antibody (Hyb-824, 5 μg/mL) diluted with BSA (5 μg/mL)/PBS was added to a Nunc Immobilizer Amino Plate in an amount of 0.1 mL per well, and the plate was shaken at room temperature for 2 hours to immobilize the antibody. After washing twice with PBS-T, 0.3 mL of TBS was added per well and the wells were allowed to stand at 4° C. overnight for blocking. 2) After washing the wells with PBS-T, patient samples (before treatment and 48 weeks after treatment) were diluted 1/20 and 1/100 with Sample dilution buffer (3% BSA/TBS-T), and 0.1 mL was added per well, and the plate was shaken at room temperature for 1.5 hours to capture the antigen onto the antibody-immobilized plate. […] After the reaction was stopped, the absorbance at 450 nm was immediately measured by a plate reader.

Salvia sclarea agglutinin [SSA lectin]
detection of N-glycosylated S-HBs as a specific positive signal (ELISA absorbance) [1]: could not detect | specificity of detection of glycosylated S-HBs in patient sera (glycosylated S-HBs): unexpectedly low

wheat germ agglutinin [WGA lectin]
effect of NHS added to the sample on lectin detection ([1]; 5% Normal human serum (NHS) added to recombinant HBs antigen): not affected | reaction of the lectin with the solid-phased antibody ([1]; antibody HBsAgGi immobilized on plate): did not react | detection of N-glycosylated S-HBs as a specific positive signal (ELISA absorbance) [1]: very clear detection | specificity of detection of glycosylated S-HBs in patient sera (glycosylated S-HBs): could specifically detect
